Measurements reported in ChEMBL document CHEMBL4699580, “Drophiobiolins A and B, Bioactive Ophiobolan Sestertepenoids Produced by Dreschslera gigantea” (J Nat Prod, 2020).
Activity calls are given as the source filed them. No cut-off for these calls is given here.

Tests used:
Digitaria sanguinalis [1] = test: Phytotoxicity against Digitaria sanguinalis leaf assessed as diameter of necrosis at 10^-4 M by leaf-puncture assay; type: functional; details: dose 0.0001 M; 100 µM
A-431 = test: Cytotoxicity against human A-431 cells assessed as reduction in cell viability at 0.5 to 10 uM after 24 hrs by MTT assay relative to control; type: functional; details: dose microM 0.5-10
Chenopodium album [2] = test: Phytotoxicity against Chenopodium album leaf assessed as diameter of necrosis at 10^-4 M by leaf-puncture assay; type: functional; details: dose 0.0001 M; 100 µM
HaCaT = test: Cytotoxicity against human HaCaT cells assessed as reduction in cell viability at 0.5 to 10 uM after 24 hrs by MTT assay relative to control; type: functional; details: dose microM 0.5-10
Digitaria sanguinalis [3] = test: Phytotoxicity against Digitaria sanguinalis leaves assessed as diameter of necrosis at 10^-3 M by leaf-puncture assay; type: functional; details: dose 0.001 M; 1000 µM
NCI-H1299 = test: Cytotoxicity against human NCI-H1299 cells assessed as reduction in cell viability at 0.5 to 10 uM after 24 hrs by MTT assay; type: functional, cell-based; details: dose microM 0.5-10, time 24.0 hrs
HeLa [4] = test: Cytotoxicity against human HeLa cells assessed as reduction in cell viability at 0.5 to 10 uM after 24 hrs by MTT assay relative to control; type: functional; details: dose microM 0.5-10
Solanum lycopersicum [5] = test: Phytotoxicity against Lycopersicon esculentum leaf assessed as diameter of necrosis at 10^-3 M by leaf-puncture assay; type: functional; details: dose 0.001 M; 1000 µM
Solanum lycopersicum [6] = test: Phytotoxicity against Lycopersicon esculentum leaf assessed as diameter of necrosis at 10^-4 M by leaf-puncture assay; type: functional; details: dose 0.0001 M; 100 µM
HeLa [7] = test: Cytotoxicity against human HeLa cells assessed as reduction in cell viability after 24 hrs by MTT assay; type: functional, cell-based
Chenopodium album [8] = test: Phytotoxicity against Chenopodium album leaf assessed as diameter of necrosis at 10^-3 M by leaf-puncture assay; type: functional; details: dose 0.001 M; 1000 µM
B16-F10 = test: Antiproliferative activity against mouse B16-F10 cells assessed as reduction in cell viability after 72 hrs by MTT assay; type: functional, cell-based; details: B16-F10, 72 h
RD = test: Cytotoxicity against human RD cells assessed as reduction in cell viability relative to control; type: functional

SMILES | Activity (Digitaria sanguinalis [1]) | Activity (A-431) | Activity (Chenopodium album [2]) | Activity (HaCaT) | Activity (Digitaria sanguinalis [3]) | Activity (NCI-H1299) | Activity (HeLa [4]) | Activity (Solanum lycopersicum [5]) | Activity (Solanum lycopersicum [6]) | IC50 (HeLa [7]) | Activity (Chenopodium album [8]) | IC50 (B16-F10) | Activity (RD)
CC(C)=C[C@H]1C[C@H](C)[C@]2(CC[C@]3(C)C[C@@H]4C(C)=CC(=O)/C4=C(\CO)C(=O)C[C@H]32)O1 | 2 mm | <=72% | 1 mm | <=63% | 3 mm | inactive | <=50% | 2 mm | 2 mm | 10 µM | 3 mm |  | 
CC1=CC(=O)[C@H]2/C(C=O)=C\C[C@@H]3[C@](C)(CC[C@]3(O)[C@@H](C)CCCC(C)(C)O)C[C@H]12 | 2 mm | <=72% | 0 mm | <=63% | 3 mm | inactive | <=50% | 2 mm | 1 mm | 10 µM | 3 mm |  | 
CC(C)=C[C@H]1C[C@H](C)[C@]2(CC[C@]3(C)C[C@H]4[C@H](C(=O)C[C@@]4(C)O)/C(C=O)=C\C[C@H]32)O1 [OPHIOBOLIN A] | 3 mm |  | 2 mm |  | 3 mm |  |  | 3 mm | 3 mm |  | 3 mm | 0.29 µM | 70%
